Reference: ChEMBL document CHEMBL1125178, “Electrophilic gamma-lactone kappa-opioid receptor probes. Analogues of 2'-hydroxy-2-tetrahydrofurfuryl-5,9-dimethyl-6,7-benzomorphan diastereomers” (J Med Chem, 1991)

How the values were obtained:
[1] = Displacement of [3H]bremazocine from opioid receptor of guinea pig membrane; set-up: species or system Cavia porcellus
[2] = target: Kappa-type opioid receptor (Cavia porcellus, UniProt P41144); test: Displacement of [3H]bremazocine from opioid receptor kappa of guinea pig membrane.
[3] = target: Opioid receptors; mu/kappa/delta (Homo sapiens, UniProt P41145+P41143+P35372); test: Displacement of 0.5 nM [3H]bremazocine from opioid receptor sites in guinea pig membranes; format: cell membranes, Cavia porcellus; details: target entry is the homologue from another species

Sequence of Kappa-type opioid receptor (P41144 whole entry): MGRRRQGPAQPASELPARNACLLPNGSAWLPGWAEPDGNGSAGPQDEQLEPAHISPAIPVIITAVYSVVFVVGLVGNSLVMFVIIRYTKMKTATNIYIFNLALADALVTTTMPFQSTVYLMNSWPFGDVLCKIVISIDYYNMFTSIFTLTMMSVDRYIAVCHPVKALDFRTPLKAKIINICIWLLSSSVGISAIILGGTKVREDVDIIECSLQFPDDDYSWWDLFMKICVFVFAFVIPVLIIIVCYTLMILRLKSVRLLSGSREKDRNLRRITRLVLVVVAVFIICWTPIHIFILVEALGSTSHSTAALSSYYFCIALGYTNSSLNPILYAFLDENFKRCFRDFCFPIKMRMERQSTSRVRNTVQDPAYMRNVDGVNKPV

**Q.** Which results are given for C[C@H]1[C@H]2Cc3ccc(O)cc3[C@@]1(C)CCN2C[C@H]1CCCO1?
**A.** IC50 [1]: 84 nM; IC50 [2]: 70 nM

**Q.** With C[C@H]1[C@H]2Cc3ccc(O)cc3[C@@]1(C)CCN2C[C@@H]1CCCO1 as the compound, how does the IC50 [1] read?
**A.** 2.3 nM

**Q.** And the IC50 [2]?
**A.** 1.7 nM

**Q.** Which IC50 [1] does the source give for CC[C@H]1[C@H]2Cc3ccc(O)cc3[C@@]1(CC)CCN2Cc1ccoc1 here?
**A.** 2.9 nM

**Q.** What about the IC50 [2] of the same compound?
**A.** 1.6 nM

**Q.** Which IC50 [1] does the source give for C=C1C[C@H](CN2CC[C@]3(C)c4cc(O)ccc4C[C@@H]2[C@@H]3C)OC1=O here?
**A.** > 3000 nM

**Q.** For C[C@H]1[C@H]2Cc3ccc(O)cc3[C@@]1(C)CCN2C[C@H]1C=CC(=O)O1, which IC50 [1] is on record?
**A.** 89 nM

**Q.** And the IC50 [2]?
**A.** 74 nM

**Q.** For C=C1C[C@H](CN2CC[C@@]3(C)c4cc(O)ccc4C[C@H]2[C@H]3C)OC1=O, which IC50 [1] is on record?
**A.** 1800 nM

**Q.** Which IC50 [1] does the source give for C[C@H]1[C@H]2Cc3ccc(O)cc3[C@@]1(C)CCN2C[C@H]1CCC(=O)O1 here?
**A.** 620 nM

**Q.** What about the IC50 [2] of the same compound?
**A.** 400 nM

**Q.** Which results are given for C=C1C[C@@H](CN2CC[C@]3(C)c4cc(O)ccc4C[C@@H]2[C@@H]3C)OC1=O?
**A.** IC50 [1]: 380 nM; IC50 [2]: 400 nM

**Q.** For C[C@H]1[C@H]2Cc3ccc(O)cc3[C@@]1(C)CCN2C[C@@H]1C=CC(=O)O1, which IC50 [1] is on record?
**A.** 7.4 nM

**Q.** What about the IC50 [2] of the same compound?
**A.** 5.4 nM

**Q.** For C=C1C[C@@H](CN2CC[C@@]3(C)c4cc(O)ccc4C[C@H]2[C@H]3C)OC1=O, which IC50 [3] is on record?
**A.** 1300 nM

**Q.** With C[C@H]1[C@H]2Cc3ccc(O)cc3[C@@]1(C)CCN2C[C@@H]1CCC(=O)O1 as the compound, how does the IC50 [1] read?
**A.** 12 nM

**Q.** And the IC50 [2]?
**A.** 7.3 nM

**Q.** For CC[C@@H]1[C@@H]2Cc3ccc(O)cc3[C@]1(CC)CCN2Cc1ccoc1, which IC50 [1] is on record?
**A.** 2200 nM

**Q.** Which IC50 [1] does the source give for C[C@H]1[C@H]2Cc3ccc(O)cc3[C@]1(C)CCN2Cc1ccco1 here?
**A.** 6.8 nM

**Q.** What about the IC50 [2] of the same compound?
**A.** 5.7 nM

**Q.** With C[C@@H]1[C@@H]2Cc3ccc(O)cc3[C@]1(C)CCN2C[C@@H]1CCCO1 as the compound, how does the IC50 [3] read?
**A.** 1000 nM

**Q.** Which IC50 [1] does the source give for C=CCN1CC[C@]23c4c5ccc(O)c4O[C@H]2C(=O)CC[C@@]3(O)[C@H]1C5 [NALOXONE] here?
**A.** 23 nM

**Q.** With O=C1CC[C@@]2(O)[C@H]3Cc4ccc(O)c5c4[C@@]2(CCN3CC2CC2)[C@H]1O5 [NALTREXONE] as the compound, how does the IC50 [1] read?
**A.** 5.7 nM
